{
  "source": "patent US20160061849A1",
  "about": "“LIPIDOMIC BIOMARKERS” (UNITHER VIROLOGY, LLC, priority 2014, published 2016)",
  "key": {"ER alpha glucosidases": {"test_system": "ER alpha glucosidases", "settings": "cited from earlier work"}, "Huh7.5 cells": {"test_system": "Huh7.5 cells", "assay": "\"Total lipid\" fatty acid profiling (GCMS) of hepatoma cells treated with iminosugars", "assay_type": "cell-based, human", "settings": "uninfected state, antiviral concentrations, 4 days", "description": "Methods for cell culture of replication-competent HCV in human hepatoma cells were essentially as described (Pollock, Nichita et al. 2010). Huh7.5 cells (Apath, LLC) were grown in DMEM supplemented with 100 U/ml penicillin, 100 μg/ml streptomycin, 2 mM L-glutamine, 1×MEM, and 10% FBS. All incubations were at 37° C./5% CO2. The effect of iminosugar treatment on cellular lipid profiles was determined for both uninfected and HCVcc-infected cells. In order to infect cells with HCV strain Jc1 (genotype 2a), Huh7.5 cells were incubated for 1 h in the presence of the virus at a multiplicity of infection (MOI)=0.02 using a viral stock of known titer. Cells were passaged for approximately 2 weeks to allow the infection to reach close to 100% of cells as determined by HCV core protein immunofluorescence, in order to avoid dilution of ‘infected’ lipidomic signatures by uninfected cells in partially infected cultures. Both HCV-infected and uninfected cells were then incubated in the presence or absence of iminosugars for 4 days, at which point they were harvested using trypsin/EDTA, washed 3 times in cold PBS, counted using trypan blue staining, and final cell pellets were resuspended in methanol:acetone (vol 1:1) prior to lipid profiling, A small volume of each sample was used for total protein estimation using the Bradford protein assay (Bio-Rad). […]"}, "obese mice": {"test_system": "obese mice", "settings": "cited from earlier work"}, "PI3 kinase": {"test_system": "PI3 kinase", "settings": "cited from earlier work"}},
  "data": [
    {"compound": "CCCCN1C[C@H](O)[C@@H](O)[C@H](O)[C@H]1CO", "note": "[NB-DNJ, N-butyl-deoxynojirimycin]", "values": [
      {"measurement": "inhibitory activity towards ER alpha glucosidases", "setting": "ER alpha glucosidases", "result": "also inhibits glucosidase"}
    ]},
    {"compound": "OC[C@@H]1[C@@H](O)[C@H](O)[C@@H](O)CN1CCCCCOCC12CC3CC(CC(C3)C1)C2", "note": "[AMP-DNJ, N-(5-adamantane-1-yl-methoxy-pentyl)-deoxynojirimycin]", "values": [
      {"measurement": "Mead acid component of the global fatty acid composition", "setting": "Huh7.5 cells", "result": "almost doubled"},
      {"measurement": "fatty acid synthase activity", "setting": "obese mice", "result": "decreases fatty acid synthase activity"},
      {"measurement": "hepatic insulin sensitivity", "setting": "obese mice", "result": "improves hepatic insulin sensitivity"},
      {"measurement": "hepatic steatosis", "setting": "obese mice", "result": "abolishes hepatic steatosis"}
    ]},
    {"compound": "CCCCN1C[C@H](O)[C@@H](O)[C@@H](O)[C@H]1CO", "note": "[NB-DGJ, N—(N-butyl) deoxygalactojirimycin]", "values": [
      {"measurement": "inhibitory activity towards ER alpha glucosidases", "setting": "ER alpha glucosidases", "result": "no inhibitory activity"}
    ]},
    {"compound": "CCCCC/C=C\\C/C=C\\C/C=C\\C/C=C\\CCCC(=O)O", "note": "[arachidonic acid]", "values": [
      {"measurement": "activation of PI3 kinase by insulin", "setting": "PI3 kinase", "result": "blocks the activation"}
    ]}
  ]
}
